The source of these data is patent US12290535B2, “Langerin+ cell targeting” (Max-Planck-Gesellschaft zur Förderung der Wissenschaften …, priority 2018, dated 2025).

Molecules are shown by their SMILES.

The target of the assay is T1, Langerin ECD (Homo sapiens, UniProt Q9UJ71, V278A).
T1 construct: residues 148 to 328; TEV site (C); StreptagII (C); made in house; host or cells: E. coli BL21* (DE3)
Description: 19F R2-filtered NMR reporter displacement assay (Ki determination). The note with it: Langerin ECD 50 μM, pH 7.8, 25° C. Format: binding. The procedure: Langerin extracellular domain. Expression and purification were conducted as previously published (Wamhoff, E. C. et al. (19)F Nmr-Guided Design of Glycomimetic Langerin Ligands. ACS Chem Biol, 11, 2407-13 (2016)). Briefly, the trimeric Langerin extracellular domain (ECD) was expressed insolubly in E. coli BL21* (DE3) (Invitrogen). Following enzymatic cell lysis, inclusion bodies were harvested and subsequently solubilized. The sample was centrifuged and the Langerin ECD was refolded overnight via rapid dilution. Next, the sample was dialyzed overnight, centrifuged and purified via mannan-agarose affinity chromatography (Sigma Aldrich). For ^19F R2-filtered NMR and lipid-enzyme-linked lectin assay (Lipid-ELLA) experiments, the buffer was exchanged to 25 mM Tris with 150 mM NaCl and 5 mM CaCl2 at pH 7.8 using 7 kDa size-exclusion desalting columns (Thermo Scientific). For STD NMR experiments, Langerin ECD samples were dialyzed five times for at least 8 h against H2O. Subsequently, the H2O was removed via lyophilization and the residue was stored at −80° C. Prior to STD NMR experiments, the Langerin ECD was dissolved in 25 mM Tris-d11 (Eurisotope) with 100% D2O, 150 mM NaCl and 5 mM CaCl2 at pH 7. The concentration of Langerin ECD was determined via UV spectroscopy (A280, 0.1%=2.45). Purity and monodispersity of Langerin ECD samples were analyzed via SDS PAGE and DLS.
General remarks. ^19F R2-filtered NMR experiments were conducted on a PremiumCompact 600 MHz spectrometer (Agilent). Spectra were processed in MestReNova and data analysis was performed with OriginPro (Mestrelab Research. Mestrenova. 11.0.2. (2016); OriginLab. Originpro. 9.1. (2015)). Experiments with the Langerin ECD were performed at a receptor concentration of 50 μM in 25 mM Tris with 10% D2O, 150 mM NaCl and 5 mM CaCl2 at pH 7.8 and 25° C. Experiments with the DC-SIGN CRD were performed at a receptor concentration of 50 μM in 25 mM HEPES with 10% D2O, 150 mM NaCl and 5 mM CaCl2 at pH 7.0 and 25° C. TFA served as an internal reference at a concentration of 50 μM. Apparent relaxation rates R2,obs for the reporter ligand were determined using the CPMG pulse sequence as previously published (Wamhoff, E. C. et al. (19)F Nmr-Guided Design of Glycomimetic Langerin Ligands. ACS Chem Biol, 11, 2407-13 (2016): Carr, H. Y. & Purcell, E. M. Effects of Diffusion on Free Precession in Nuclear Magnetic Resonance Experiments. Phys Rev, 94, 630-638 (1954); Meiboom, S. & Gill, D. Modified Spin-Echo Method for Measuring Nuclear Relaxation Times. Rev Sci Instrum 29, 688-691 (1958)).
Ki determination. Ki values were determined as previously published for Langerin (Wamhoff, E. C. et al. (19)F NMR-Guided Design of Glycomimetic Langerin Ligands. ACS Chem Biol 11, 2407-13 (2016)). Briefly, titration experiments were conducted at a concentration of 0.1 mM of reporter ligand 24 at five competitor concentrations [I]T. Samples were prepared via serial dilution. For the acids GlcNS, GlcNAc-6-OS and GlcNS-6-OS the pH values were monitored and adjusted to 7.8 if necessary.

T1 sequence (Q9UJ71 148-328 V278A): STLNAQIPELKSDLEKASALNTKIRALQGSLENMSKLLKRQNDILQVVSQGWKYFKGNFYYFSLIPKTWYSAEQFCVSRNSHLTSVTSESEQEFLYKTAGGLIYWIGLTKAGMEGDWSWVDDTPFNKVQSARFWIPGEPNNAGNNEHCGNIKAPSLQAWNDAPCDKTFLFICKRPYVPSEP

Regarding `CC(=O)NCCO[C@H]1O[C@H](CO)[C@@H](O)[C@H](O)[C@@H]1O` [Man analog 21], the inhibition constant Ki (in general, the dissociation constant of the complex between target and ligand, obtained from inhibition or displacement) is 10 ± 1 mM.
